Assay results as given in US10301272B2, “Carboxamide or sulfonamide substituted thiazoles and related derivatives as modulators for the orphan nuclear receptor ROR[γ]” (Phenex Pharmaceuticals AG, priority 2012, dated 2019).
Like-named read-outs stand apart in the source and are kept apart here.

How the values were obtained:
RORγ = RORγ (Homo sapiens, UniProt P51449); test: RORγ Gal4 Reporter Gene Assay; format: cell-based; details: for IC50: 293T cells
Description: Determination of a ligand mediated Gal4 promoter driven transactivation to quantify ligand binding to RORγ was performed as follows: DNA encoding three different RORγ protein fragments was cloned into vector pCMV-BD (Stratagene). Expression was under control of a CMV promoter and as fusion to the DNA-binding domain of the yeast protein GAL4. Other vectors used were pFR-Luc (Stratagene) as regulated reporter plasmid. pFR-Luc contains a synthetic promoter with five tandem repeats of the yeast GAL4 binding sites that control expression of the Photinus pyralis (American firefly) luciferase gene. In order to improve experimental accuracy the plasmid pRL-CMV was cotransfected. pRL-CMV contains the constitutive CMV promoter, controlling the expression of the Renilla reniformis luciferase.
The medium is supplemented with 10% fetal bovine serum, 0.1 mM nonessential amino acids, 1 mM sodium pyruvate, 1% Glutamax and 100 units Penicilin/[…] per mL at 37° C. in 5% CO2.
For the assay, […] were plated per well in 96 well plates in 100 μL per well, incubated over night at 37° C. in 5% CO2. […] About 4 h after addition of the transfection solution, fresh Minimal Essential Medium (MEM, same composition as used for plating cells, but without serum) was added. Then compound stocks, prediluted in MEM (same composition as used for plating cells) were added (final vehicle concentration not exceeding 0.1%).
All experiments were done at least in triplicates.

[1] = molecular target: RORγ ligand binding domain (LBD) (Homo sapiens (Human), UniProt P51449); test: TR-FRET Activity Assay (ligand sensing assay, LANCE); details: for pIC50 (FRET): TR-FRET, interaction of RORγ-LBD with coactivator peptide
Sequence of RORγ ligand binding domain (LBD) (P51449 269-508): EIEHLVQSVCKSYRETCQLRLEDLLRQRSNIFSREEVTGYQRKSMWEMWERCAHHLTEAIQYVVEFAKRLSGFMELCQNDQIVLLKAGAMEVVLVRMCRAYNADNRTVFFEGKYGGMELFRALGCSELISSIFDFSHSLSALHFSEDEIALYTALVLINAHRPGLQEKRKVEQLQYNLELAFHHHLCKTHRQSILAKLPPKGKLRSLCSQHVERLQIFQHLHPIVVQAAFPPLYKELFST
Description: The ligand-binding domain (LBD) of RORγ was expressed as fusion protein with GST in BL-21 (BL3) cells using the vector pDEST15. Cells were lysed by lysozyme-treatment and sonication, and the fusion proteins purified over glutathione sepharose (Pharmacia) according to the manufacturers instructions. For screening of compounds for their influence on the RORγ-peptide interaction, the LANCE technology (Perkin Elmer) was applied. This method relies on the binding dependent energy transfer from a donor to an acceptor fluorophor attached to the binding partner of interest. For ease of handling and reduction of background from compound fluorescence LANCE technology makes use of generic fluorophore labels and time resolved detection assays were done in a final volume of 25 μL in a 384 well plate, in a Tris-based buffer system (20 mM Tris-HCl pH 6.8; 60 mM KCl, 1 mM DTT; 5 mM MgCl2; 35 ng/μL BSA), containing 20-60 ng/well recombinantly expressed RORγ-LBD fused to GST, 200-600 nM N-terminally biotinylated peptide, 200 ng/well Streptavidin-xlAPC conjugate (Prozyme) and 6-10 ng/well Eu W1024-antiGST (Perkin Elmer). DMSO content of the samples was kept at 1%.
After generation of the Tris-based buffer system, the potentially RORγ modulating ligands were diluted. […] The LANCE signal was detected by a Perkin Elmer EnVision™ Multilabel Counter. […] Ligands that promote the complex formation induce a concentration-dependent increase in time-resolved fluorescent signal.
Y is the response. Y starts at Bottom and goes to Top with a sigmoidal shape.
This is identical to the “four parameter logistic equation”. The IC50 values are calculated using this equation.

Sequence of RORγ (P51449 whole entry, looked up, the tested form may be a part): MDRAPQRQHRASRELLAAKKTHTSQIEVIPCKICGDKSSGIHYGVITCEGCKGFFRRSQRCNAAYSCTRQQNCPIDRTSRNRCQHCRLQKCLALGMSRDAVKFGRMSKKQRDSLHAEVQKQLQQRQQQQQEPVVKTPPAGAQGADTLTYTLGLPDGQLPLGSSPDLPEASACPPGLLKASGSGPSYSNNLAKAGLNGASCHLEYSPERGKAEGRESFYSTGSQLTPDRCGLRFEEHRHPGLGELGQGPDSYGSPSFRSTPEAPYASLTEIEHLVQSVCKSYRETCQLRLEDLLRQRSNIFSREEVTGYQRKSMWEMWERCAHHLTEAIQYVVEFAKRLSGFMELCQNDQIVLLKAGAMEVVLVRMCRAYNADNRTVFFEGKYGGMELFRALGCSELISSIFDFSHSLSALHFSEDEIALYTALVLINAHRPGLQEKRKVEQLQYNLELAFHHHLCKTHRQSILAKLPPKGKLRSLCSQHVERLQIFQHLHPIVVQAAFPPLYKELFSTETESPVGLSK

SMILES	pIC50 (FF) (RORγ)	pIC50 (REN) (RORγ)	pIC50 (FRET) [1]	IC50 (RORγ; firefly (FF) luciferase, read-out: pIC50 (FF) (converted))	IC50 (RORγ; renilla normalised (RENnorm) luciferase, read-out: pIC50 (REN) (converted))	IC50 [1]
CC(C)(C)c1cc(-c2sc(C(=O)NCC3(C(N)=O)CCOCC3)nc2CC2CCCCC2)cc(C2(C)CC2)c1 [6/2]	7.0/7.5/7.7	7.0/7.5/7.7	7.0/7.5/7.7	–	–	–
CC(C)(C)NS(=O)(=O)c1ccc(-c2sc(C(=O)NCC3(C(N)=O)CCOCC3)nc2CC2CCCCC2)c2ccccc12 [6/3]	6.5/8.5/8.7	6.5/8.5/8.7	6.5/8.5/8.7	–	–	–
CC(C)(C)NS(=O)(=O)c1ccc(-c2sc(C(=O)NCC3(O)CCS(=O)(=O)CC3)nc2CC2CCCCC2)c2ccccc12 [6/5]	6.6/8.5/8.7	6.6/8.5/8.7	6.6/8.5/8.7	–	–	–
CC(C)(C)NS(=O)(=O)c1ccc(-c2sc(C(=O)NC3CCS(=O)(=O)CC3)nc2CC2CCCCC2)c2ccccc12 [6/6]	6.7/9.0/9.0	6.7/9.0/9.0	6.7/9.0/9.0	–	–	–
CC(C)(C)NS(=O)(=O)c1ccc(-c2sc(C(=O)NC34CCC(C(=O)O)(CC3)CC4)nc2CC2CCCCC2)c2ccccc12 [6/8]	6.3/8.2/8.2	6.3/8.2/8.2	6.3/8.2/8.2	–	–	–
C[C@H](NS(=O)(=O)c1ccc(-c2sc(C(=O)NC3CCOCC3)nc2CC2CCCCC2)c2ccccc12)C(F)(F)F [6/12]	–	–	–	2 nM	2 nM	126 nM
CC(C)(C)NS(=O)(=O)c1ccc(-c2sc(C(=O)NC3CSC3)nc2CC2CCCCC2)c2ccccc12 [6/14]	6.8/8.7/8.7	6.8/8.7/8.7	6.8/8.7/8.7	–	–	–
CC(C)(O)CNC(=O)c1nc(CC2CCCCC2)c(-c2ccc(S(=O)(=O)NC(C)(C)C)c(C(F)F)c2F)s1 [6/18]	7.0/8.5/8.7	7.0/8.5/8.7	7.0/8.5/8.7	–	–	–
CC(C)(C)NS(=O)(=O)c1ccc(-c2sc(C(=O)NN3CCOCC3)nc2CC2CCCCC2)c(Cl)c1Cl [6/20]	6.9/8.7/8.7	6.9/8.7/8.7	6.9	–	–	–
CC(C)(C)NS(=O)(=O)c1ccc(-c2sc(C(=O)NN3CCS(=O)(=O)CC3)nc2CC2CCCCC2)c(Cl)c1Cl [6/21]	6.8/8.7/8.7	6.8/8.7/8.7	6.8/8.7/8.7	–	–	–
CC(C)(C)NS(=O)(=O)c1ccc(-c2sc(C(=O)NC3CCOCC3)nc2CC2CCCCC2)cc1C(C)(C)O [6/22]	6.8/7.7/7.7	6.8/7.7/7.7	6.8/7.7/7.7	–	–	–
CC(C)(O)CNC(=O)c1nc(CC2CCCCC2)c(-c2ccc(S(=O)(=O)NC(C)(C)C)c(C(C)(C)O)c2)s1 [6/23]	6.6/7.5/7.6	6.6/7.5/7.6	6.6/7.5/7.6	–	–	–
CC(C)(C)NS(=O)(=O)c1ccc(-c2sc(C(=O)NC3CSC3)nc2CC2CCCCC2)cc1C(C)(C)O [6/24]	7.3/7.9/8.0	7.3/7.9/8.0	7.3/7.9/8.0	–	–	–
CC(C)(C)NS(=O)(=O)c1ccc(-c2sc(C(=O)NCCN3CCOCC3)nc2CC2CCCCC2)cc1C(C)(C)O [6/25]	5.8/6.7/6.7	5.8/6.7/6.7	5.8/6.7/6.7	–	–	–
CC(C)(C)NS(=O)(=O)c1ccc(-c2sc(C(=O)NC3CCS(=O)(=O)CC3)nc2CC2CCCCC2)cc1C(C)(C)O [6/26]	6.6/7.7/7.8	6.6/7.7/7.8	6.6/7.7/7.8	–	–	–
CC(C)(C)NS(=O)(=O)c1ccc(-c2sc(C(=O)NCC3(O)CCOCC3)nc2CC2CCCCC2)cc1C(C)(C)O [6/27]	6.7/7.7/7.7	6.7/7.7/7.7	6.7/7.7/7.7	–	–	–

SMILES	pIC50 (FF) (RORγ)	pIC50 (REN) (RORγ)	pIC50 (FRET) [1]	IC50 (RORγ; firefly (FF) luciferase, read-out: pIC50 (FF) (converted))	IC50 (RORγ; renilla normalised (RENnorm) luciferase, read-out: pIC50 (REN) (converted))	IC50 [1]
CC(C)(C)NS(=O)(=O)c1ccc(-c2sc(C(=O)NC3CSC3)nc2CC2CCCCC2)c(Cl)c1Cl [6/30]	7.2/8.7/8.7	7.2/8.7/8.7	7.2/8.7/8.7	–	–	–
CC(C)(C)NS(=O)(=O)c1ccc(-c2sc(C(=O)NC3CC3)nc2CC2CCCCC2)c(Cl)c1Cl [6/31]	7.3/8.0/8.0	7.3/8.0/8.0	7.3/8.0/8.0	–	–	–
CC(C)(C)NS(=O)(=O)c1ccc(-c2sc(C(=O)N3CC4(CSC4)C3)nc2CC2CCCCC2)c(Cl)c1Cl [6/32]	6.9/8.0/8.2	6.9/8.0/8.2	6.9/8.0/8.2	–	–	–
CC(C)(C)NS(=O)(=O)c1ccc(-c2sc(C(=O)N3CC4(COC4)C3)nc2CC2CCCCC2)c(Cl)c1Cl [6/33]	6.6/7.9/8.0	6.6/7.9/8.0	6.6/7.9/8.0	–	–	–
CC(C)(C)NS(=O)(=O)c1ccc(-c2sc(C(=O)NC3COC3)nc2CC2CCCCC2)c(Cl)c1Cl [6/34]	7.2/8.5/8.5	7.2/8.5/8.5	7.2/8.5/8.5	–	–	–
CC(C)(C)NS(=O)(=O)c1ccc(-c2sc(C(=O)NC3CCS(=O)(=O)CC3)nc2CC2CC2)c(Cl)c1Cl [6/35]	7.0/7.5/7.5	7.0/7.5/7.5	7.0/7.5/7.5	–	–	–
CC(C)(C)NS(=O)(=O)c1ccc(-c2sc(C(=O)NCC3(C(=O)O)CCOCC3)nc2CC2CCCCC2)c(Cl)c1Cl [6/36]	6.3/7.4/7.4	6.3/7.4/7.4	6.3/7.4/7.4	–	–	–
CC(C)(C)NS(=O)(=O)c1ccc(-c2sc(C(=O)N3CC(C(C)(C)C(=O)O)C3)nc2CC2CCCCC2)c(Cl)c1Cl [6/37]	6.1/6.9/6.9	6.1/6.9/6.9	6.1	–	–	–
CC(C)(C)NS(=O)(=O)c1ccc(-c2sc(C(=O)NC34CC(C(=O)O)(C3)C4)nc2CC2CCCCC2)c(Cl)c1Cl [6/38]	6.8/7.8/7.9	6.8/7.8/7.9	6.8/7.8/7.9	–	–	–
CC(C)(C)NS(=O)(=O)c1ccc(-c2sc(C(=O)NCCC(C)(C)C(=O)O)nc2CC2CCCCC2)c(Cl)c1Cl [6/39]	6.4/8.2/8.2	6.4/8.2/8.2	6.4/8.2/8.2	–	–	–
CSc1cnc(CNC(=O)c2nc(CC3CCCCC3)c(-c3ccc(S(=O)(=O)NC(C)(C)C)c(Cl)c3Cl)s2)s1 [6/40]	7.0/8.2/8.3	7.0/8.2/8.3	7.0/8.2/8.3	–	–	–
CC(C)(C)NS(=O)(=O)c1ccc(-c2sc(C(=O)N[C@H]3C[C@H](S(C)(=O)=O)C3)nc2CC2CCCCC2)c(Cl)c1Cl [6/41]	7.3/8.0/8.2	7.3/8.0/8.2	7.3/8.0/8.2	–	–	–
CC(C)(C)NS(=O)(=O)c1ccc(-c2sc(C(=O)N[C@H]3C[C@@H](S(C)(=O)=O)C3)nc2CC2CCCCC2)c(Cl)c1Cl [6/42]	7.2/8.2/8.4	7.2/8.2/8.4	7.2/8.2/8.4	–	–	–
CC1CCN(C(=O)c2nc(C(=O)N3CC4(CCS(=O)(=O)CC4)C3)oc2-c2ccc(S(=O)(=O)NC(C)(C)C)c3ccccc23)CC1 [Example 306, N-(tert-Butyl)-4-(2-(7,7-dioxido-7-thia-2-azaspiro[3.5]nonane-2-carbonyl)-4-(4-methyl-piperidine-1-carbonyl)oxazol-5-yl)naphthalene-1-sulfonamide]	nt/5.6/5.6	nt/5.6/5.6	–	–	–	–
CC(C)(C)NS(=O)(=O)c1ccc(-c2sc(C(=O)N[C@H]3C[C@H](C(=O)O)C3)cc2CC2CCCCC2)c2ccccc12 [Example 307, trans-3-(5-(4-(N-(tert-Butyl)sulfamoyl)naphthalen-1-yl)-4-(cyclohexylmethyl)thiophene-2-carboxamido)cyclobutanecarboxylic acid]	nt/8.2/8.3	nt/8.2/8.3	–	–	–	–
CC(C)(C)NS(=O)(=O)c1ccc(-c2sc(C(=O)NC3CCS(=O)(=O)CC3)cc2CC2CCCCC2)c2ccccc12 [Example 307/1]	nt/8.4/8.5	nt/8.4/8.5	–	–	–	–
